Assay results reported in US20180311238A1, “Selective Agonist Of a6 Containing nAChRs” (Saniona A/S, priority 2017, published 2018).

Legend:
[1] = biological target: T1, human α3β4 nicotinic receptors (Homo sapiens, UniProt P30926+P32297); assay: FLIPR fluorescence-based calcium assay, α3β4; type: cell-based; conditions: FLIPR calcium response relative to nicotine
T1 construct: expressed in transfected cells
Method: The level of agonist activity of 9-methyl-3-pyridin-3-yl-3,9-diaza-bicyclo[3.3.1]nonane was tested in functional fluorescence-based calcium assays using TE671 cells and HEK293 cells stably expressing human α6/α3β2β3^V273S, α3β4 and α4β2 nicotinic receptors.
Cells were plated on poly-D-lysine coated 384-well microtiter plates and were allowed to proliferate for 24 h. Dye loading was performed by incubating cells with 2 μM fluo-4/AM for 1.5 h at room temperature. Dye not taken up by cells was removed by aspiration followed by three washing cycles with 25 μl of NMDG Ringer buffer (in mM: 140 NMDG, 5 KCl, 1 MgCl2, 10 CaCl2, 10 HEPES, pH 7.4) after which the cells were kept in 25 μl of the same buffer. The microtiter plates were placed in a Fluoremetric Imaging Plate Reader (FLIPR) and subjected to test compound at various concentrations. Background subtracted compound-mediated calcium responses were normalized to 100 μM nicotine control responses and pEC50 as well as relative maximal efficacy values were determined.

[2] = test system: primary dopaminergic neuronal culture; assay: Primary dopaminergic neuronal culture injured by MPP+, number of TH positive neurons; type: cell-based, rat; conditions: MPP+ 4 μM, 48H; compound 1 nM to 1 μM added 1H before intoxication
Source text: Pregnant female Wistar rats of 15 days gestation was euthanized by cervical dislocation and the foetuses was removed from the uterus. Hereafter, the embryonic midbrains was removed and placed in ice-cold medium of Leibovitz containing 2% of Penicillin-Streptomycin and 1% of bovine serum albumin (BSA). Only the ventral portions of the mesencephalic flexure were used for the cell preparations as this is the region of the developing brain rich in dopaminergic neurons. The midbrains were dissociated by trypsinisation for 20 min at 37° C. (Trypsin EDTA 1X). The reaction was stopped by the addition of DULBECCO′S MODIFIED Eagle's medium (DMEM) containing DNAse I grade II (0.1 mg/ml) and 10% foetal calf serum (FCS). Cells were then mechanically dissociated by 3 passages through a 10 ml pipette. Cells was then centrifuged at 180×g for 10 min at 4° C. on a layer of BSA (3.5%) in L15 medium. The supernatant was discarded, and the cells of pellet were re-suspended in a defined culture medium consisting of Neurobasal supplemented with B27 (2%), L-glutamine (2 mM) and 2% of PS solution and 10 ng/ml BDNF and 1 ng/ml of Glial cell-derived neurotrophic factor (GDNF). Viable cells were counted in a Neunauer cytometer using the tryphan blue exclusion test. […]
Half of the medium was changed every 2 days with fresh medium. […] Following an additional 48H of incubation, the number of TH positive neurons were counted. […]

T1 sequence (P32297 32-505): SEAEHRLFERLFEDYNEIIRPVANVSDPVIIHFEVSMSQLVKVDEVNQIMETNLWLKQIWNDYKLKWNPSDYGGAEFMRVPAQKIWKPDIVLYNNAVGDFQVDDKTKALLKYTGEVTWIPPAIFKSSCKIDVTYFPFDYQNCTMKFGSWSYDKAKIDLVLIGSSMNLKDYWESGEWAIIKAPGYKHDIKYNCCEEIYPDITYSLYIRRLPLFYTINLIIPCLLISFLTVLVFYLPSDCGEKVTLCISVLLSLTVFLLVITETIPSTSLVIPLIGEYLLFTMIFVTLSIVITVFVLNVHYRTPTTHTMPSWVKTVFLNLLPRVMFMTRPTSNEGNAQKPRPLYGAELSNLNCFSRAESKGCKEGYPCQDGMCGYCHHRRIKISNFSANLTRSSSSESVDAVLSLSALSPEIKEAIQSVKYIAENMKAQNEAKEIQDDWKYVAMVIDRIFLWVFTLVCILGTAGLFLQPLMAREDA
T1 sequence (P30926 22-498): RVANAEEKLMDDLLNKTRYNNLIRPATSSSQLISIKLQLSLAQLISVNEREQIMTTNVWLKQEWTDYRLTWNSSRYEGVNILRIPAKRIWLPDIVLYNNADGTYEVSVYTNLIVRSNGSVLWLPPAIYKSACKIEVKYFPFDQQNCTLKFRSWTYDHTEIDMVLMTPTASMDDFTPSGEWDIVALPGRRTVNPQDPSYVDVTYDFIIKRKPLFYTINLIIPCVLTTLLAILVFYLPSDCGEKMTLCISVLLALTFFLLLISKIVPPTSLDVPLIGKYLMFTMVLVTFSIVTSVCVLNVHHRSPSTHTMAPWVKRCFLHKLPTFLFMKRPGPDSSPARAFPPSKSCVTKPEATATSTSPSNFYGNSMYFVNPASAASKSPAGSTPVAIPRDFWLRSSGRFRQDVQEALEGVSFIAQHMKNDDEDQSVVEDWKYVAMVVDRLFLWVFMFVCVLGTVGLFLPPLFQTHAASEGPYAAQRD

CN1C2CCCC1CN(c1cccnc1)C2 [9-methyl-3-pyridin-3-yl-3,9-diaza-bicyclo[3.3.1]nonane]
efficacy [1]: practically no efficacy | neuroprotective effect, number of TH positive neurons [2]: concentration-dependent neuroprotective effect
